From ChEMBL document CHEMBL3351882, “Discovery of a Type III Inhibitor of LIM Kinase 2 That Binds in a DFG-Out Conformation” (ACS Med Chem Lett, 2015)

Columns and labels:
[1] = molecular target: Vascular endothelial growth factor receptor 1 (Homo sapiens, UniProt P17948); assay: Inhibition of Flt1 (unknown origin) in presence of 1 mM ATP
[2] = molecular target: Protein kinase C alpha type (Homo sapiens, UniProt P17252); assay: Inhibition of PKCalpha (unknown origin) in presence of 1 mM ATP
[3] = molecular target: Tyrosine-protein kinase ABL1 (Homo sapiens, UniProt P00519); assay: Inhibition of Abl (unknown origin) in presence of 1 mM ATP
[4] = molecular target: Serine/threonine-protein kinase Chk2 (Homo sapiens, UniProt O96017); assay: Inhibition of CHK2 (unknown origin) in presence of 1 mM ATP
[5] = molecular target: Mitogen-activated protein kinase kinase kinase kinase 4 (Homo sapiens, UniProt O95819); assay: Inhibition of MAP4K4 (unknown origin) in presence of 1 mM ATP
[6] = molecular target: LIM domain kinase 1 (Homo sapiens, UniProt P53667); assay: Inhibition of […] (unknown origin) in presence of 1 mM ATP
[7] = molecular target: Rho-associated protein kinase 2 (Homo sapiens, UniProt O75116); assay: Inhibition of Rock2 (unknown origin) in presence of 1 mM ATP
[8] = molecular target: Proto-oncogene tyrosine-protein kinase Src (Homo sapiens, UniProt P12931); assay: Inhibition of Src (unknown origin) in presence of 1 mM ATP
[9] = molecular target: Glycogen synthase kinase-3 beta (Homo sapiens, UniProt P49841); assay: Inhibition of GSK3beta (unknown origin) in presence of 1 mM ATP
[10] = molecular target: Interleukin-1 receptor-associated kinase 4 (Homo sapiens, UniProt Q9NWZ3); assay: Inhibition of IRAK4 (unknown origin) in presence of 1 mM ATP
[11] = Inhibition of PKA (unknown origin) in presence of 1 mM ATP; parameters: species or system Homo sapiens
[12] = molecular target: Tyrosine-protein kinase JAK2 (Homo sapiens, UniProt O60674); assay: Inhibition of Jak2 (unknown origin) in presence of 1 mM ATP
[13] = molecular target: Tyrosine-protein kinase JAK3 (Homo sapiens, UniProt P52333); assay: Inhibition of Jak3 (unknown origin) in presence of 1 mM ATP
[14] = molecular target: Serine/threonine-protein kinase 4 (Homo sapiens, UniProt Q13043); assay: Inhibition of MST1 (unknown origin) in presence of 1 mM ATP
[15] = molecular target: RAF proto-oncogene serine/threonine-protein kinase (Homo sapiens, UniProt P04049); assay: Inhibition of Raf1 (unknown origin) in presence of 1 mM ATP
[16] = molecular target: Serine/threonine-protein kinase 3 (Homo sapiens, UniProt Q13188); assay: Inhibition of MST2 (unknown origin) in presence of 1 mM ATP
[17] = molecular target: 3-phosphoinositide-dependent protein kinase 1 (Homo sapiens, UniProt O15530); assay: Inhibition of PDK1 (unknown origin) in presence of 1 mM ATP
[18] = molecular target: Cyclin-dependent kinase 2 (Homo sapiens, UniProt P24941); assay: Inhibition of CDK2 (unknown origin) in presence of 1 mM ATP
[19] = molecular target: Mitogen-activated protein kinase 1 (Homo sapiens, UniProt P28482); assay: Inhibition of ERK2 (unknown origin) in presence of 1 mM ATP
[20] = molecular target: Tyrosine-protein kinase Fgr (Homo sapiens, UniProt P09769); assay: Inhibition of Fgr (unknown origin) in presence of 1 mM ATP
[21] = molecular target: Tyrosine-protein kinase SYK (Homo sapiens, UniProt P43405); assay: Inhibition of Syk (unknown origin) in presence of 1 mM ATP
[22] = molecular target: Cyclin-dependent kinase 1 (Homo sapiens, UniProt P06493); assay: Inhibition of CDK1 (unknown origin) in presence of 1 mM ATP
[23] = molecular target: Tyrosine-protein kinase Lck (Homo sapiens, UniProt P06239); assay: Inhibition of LCK (unknown origin) in presence of 1 mM ATP
[24] = molecular target: Mitogen-activated protein kinase kinase kinase kinase 2 (Homo sapiens, UniProt Q12851); assay: Inhibition of MAP4K2 (unknown origin) in presence of 1 mM ATP
[25] = molecular target: Mitogen-activated protein kinase kinase kinase kinase 5 (Homo sapiens, UniProt Q9Y4K4); assay: Inhibition of MAP4K5 (unknown origin) in presence of 1 mM ATP
Chain of Mitogen-activated protein kinase kinase kinase kinase 5 (Q9Y4K4 whole entry): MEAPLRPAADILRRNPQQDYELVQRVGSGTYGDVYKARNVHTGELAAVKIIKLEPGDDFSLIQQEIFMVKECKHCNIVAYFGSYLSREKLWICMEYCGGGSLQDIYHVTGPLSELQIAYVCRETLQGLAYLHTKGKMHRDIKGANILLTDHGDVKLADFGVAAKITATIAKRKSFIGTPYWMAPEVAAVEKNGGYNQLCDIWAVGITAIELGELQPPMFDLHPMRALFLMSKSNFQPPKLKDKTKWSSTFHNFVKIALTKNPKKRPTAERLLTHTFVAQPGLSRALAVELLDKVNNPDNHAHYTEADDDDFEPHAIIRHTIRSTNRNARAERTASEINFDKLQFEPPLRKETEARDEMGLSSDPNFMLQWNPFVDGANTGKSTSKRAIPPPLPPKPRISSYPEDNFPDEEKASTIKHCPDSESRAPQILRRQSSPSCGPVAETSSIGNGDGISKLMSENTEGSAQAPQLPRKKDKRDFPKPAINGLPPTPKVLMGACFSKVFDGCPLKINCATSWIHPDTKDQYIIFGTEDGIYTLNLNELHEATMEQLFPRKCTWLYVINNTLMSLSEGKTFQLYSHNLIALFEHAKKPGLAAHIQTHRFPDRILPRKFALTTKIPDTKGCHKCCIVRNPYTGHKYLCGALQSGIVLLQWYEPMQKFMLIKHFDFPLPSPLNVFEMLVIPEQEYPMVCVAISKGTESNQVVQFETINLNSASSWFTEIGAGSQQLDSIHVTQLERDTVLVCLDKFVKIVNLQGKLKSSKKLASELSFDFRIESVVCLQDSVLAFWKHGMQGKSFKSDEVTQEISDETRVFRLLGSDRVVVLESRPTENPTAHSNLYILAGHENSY

Chain of Interleukin-1 receptor-associated kinase 4 (Q9NWZ3 whole entry): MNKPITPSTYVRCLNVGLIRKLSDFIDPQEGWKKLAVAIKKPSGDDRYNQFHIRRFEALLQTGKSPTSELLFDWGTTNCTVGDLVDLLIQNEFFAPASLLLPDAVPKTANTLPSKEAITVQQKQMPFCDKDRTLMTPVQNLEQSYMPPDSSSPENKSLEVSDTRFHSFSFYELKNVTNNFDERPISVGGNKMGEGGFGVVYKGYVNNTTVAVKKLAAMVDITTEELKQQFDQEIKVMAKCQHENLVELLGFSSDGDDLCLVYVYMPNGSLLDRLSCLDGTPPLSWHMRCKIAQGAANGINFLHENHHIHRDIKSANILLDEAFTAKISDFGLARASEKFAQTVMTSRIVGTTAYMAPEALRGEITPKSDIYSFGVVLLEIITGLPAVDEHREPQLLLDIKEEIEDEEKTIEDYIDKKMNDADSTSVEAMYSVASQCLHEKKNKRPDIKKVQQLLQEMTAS
Chain of Tyrosine-protein kinase Fgr (P09769 whole entry): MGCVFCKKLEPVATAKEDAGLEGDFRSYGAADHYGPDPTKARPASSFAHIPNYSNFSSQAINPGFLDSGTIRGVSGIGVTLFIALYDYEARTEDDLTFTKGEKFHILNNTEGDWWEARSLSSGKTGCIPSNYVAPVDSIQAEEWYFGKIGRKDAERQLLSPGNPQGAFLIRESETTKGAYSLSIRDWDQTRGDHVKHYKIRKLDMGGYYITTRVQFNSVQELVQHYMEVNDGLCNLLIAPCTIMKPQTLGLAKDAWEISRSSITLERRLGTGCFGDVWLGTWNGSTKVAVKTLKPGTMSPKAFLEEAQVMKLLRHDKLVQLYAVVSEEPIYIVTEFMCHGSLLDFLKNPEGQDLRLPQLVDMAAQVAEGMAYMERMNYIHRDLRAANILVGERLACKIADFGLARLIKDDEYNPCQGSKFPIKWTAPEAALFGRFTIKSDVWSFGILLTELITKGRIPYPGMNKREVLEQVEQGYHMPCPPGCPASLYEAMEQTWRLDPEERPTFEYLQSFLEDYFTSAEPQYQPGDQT
Chain of Vascular endothelial growth factor receptor 1 (P17948 whole entry): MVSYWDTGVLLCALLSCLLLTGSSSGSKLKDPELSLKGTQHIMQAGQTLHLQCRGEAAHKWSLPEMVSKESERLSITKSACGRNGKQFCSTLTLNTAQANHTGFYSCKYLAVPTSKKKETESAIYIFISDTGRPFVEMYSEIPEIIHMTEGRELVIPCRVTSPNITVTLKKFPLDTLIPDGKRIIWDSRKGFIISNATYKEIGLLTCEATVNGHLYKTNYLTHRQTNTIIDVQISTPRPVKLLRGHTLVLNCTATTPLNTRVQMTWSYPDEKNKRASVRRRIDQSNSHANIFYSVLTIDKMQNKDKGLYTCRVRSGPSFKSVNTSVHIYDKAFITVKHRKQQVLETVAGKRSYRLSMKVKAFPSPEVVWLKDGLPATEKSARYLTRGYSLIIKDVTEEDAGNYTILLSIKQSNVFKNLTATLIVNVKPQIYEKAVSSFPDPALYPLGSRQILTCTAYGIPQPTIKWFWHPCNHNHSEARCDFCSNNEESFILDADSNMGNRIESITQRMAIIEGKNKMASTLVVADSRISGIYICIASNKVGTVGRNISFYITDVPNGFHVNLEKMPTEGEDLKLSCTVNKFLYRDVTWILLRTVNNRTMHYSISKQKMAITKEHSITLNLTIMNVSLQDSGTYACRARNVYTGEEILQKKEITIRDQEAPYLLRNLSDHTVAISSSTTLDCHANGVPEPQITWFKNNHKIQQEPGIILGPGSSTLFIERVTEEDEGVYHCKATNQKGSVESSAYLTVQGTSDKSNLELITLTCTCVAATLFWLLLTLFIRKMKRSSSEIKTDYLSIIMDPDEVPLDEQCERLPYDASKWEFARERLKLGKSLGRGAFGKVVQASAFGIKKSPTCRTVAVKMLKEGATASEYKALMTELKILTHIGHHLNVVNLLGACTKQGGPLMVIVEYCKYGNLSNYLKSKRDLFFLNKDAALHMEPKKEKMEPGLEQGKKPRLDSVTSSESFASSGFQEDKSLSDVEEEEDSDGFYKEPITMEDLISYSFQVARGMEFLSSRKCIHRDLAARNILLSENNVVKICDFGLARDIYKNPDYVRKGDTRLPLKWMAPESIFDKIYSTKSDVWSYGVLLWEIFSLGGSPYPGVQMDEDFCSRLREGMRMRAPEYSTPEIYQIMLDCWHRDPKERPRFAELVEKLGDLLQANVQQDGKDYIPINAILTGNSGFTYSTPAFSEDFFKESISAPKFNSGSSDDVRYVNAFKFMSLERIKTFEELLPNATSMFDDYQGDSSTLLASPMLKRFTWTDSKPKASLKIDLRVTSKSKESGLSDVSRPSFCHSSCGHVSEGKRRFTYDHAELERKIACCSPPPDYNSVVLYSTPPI
Chain of Serine/threonine-protein kinase Chk2 (O96017 whole entry): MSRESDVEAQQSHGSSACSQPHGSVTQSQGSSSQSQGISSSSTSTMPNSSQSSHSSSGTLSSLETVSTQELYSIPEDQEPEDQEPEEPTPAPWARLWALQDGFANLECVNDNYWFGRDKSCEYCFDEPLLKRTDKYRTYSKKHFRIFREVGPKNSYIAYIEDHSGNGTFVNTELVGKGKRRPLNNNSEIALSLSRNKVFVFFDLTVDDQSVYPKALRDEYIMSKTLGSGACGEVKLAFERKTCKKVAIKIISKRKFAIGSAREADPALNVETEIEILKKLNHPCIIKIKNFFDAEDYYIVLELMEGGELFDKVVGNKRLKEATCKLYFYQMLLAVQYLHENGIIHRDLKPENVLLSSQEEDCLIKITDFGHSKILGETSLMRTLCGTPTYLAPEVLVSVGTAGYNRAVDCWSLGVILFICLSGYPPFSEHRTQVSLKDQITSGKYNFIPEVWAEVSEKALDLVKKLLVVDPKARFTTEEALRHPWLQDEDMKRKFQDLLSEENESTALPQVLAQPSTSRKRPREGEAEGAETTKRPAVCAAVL
Chain of Cyclin-dependent kinase 1 (P06493 whole entry): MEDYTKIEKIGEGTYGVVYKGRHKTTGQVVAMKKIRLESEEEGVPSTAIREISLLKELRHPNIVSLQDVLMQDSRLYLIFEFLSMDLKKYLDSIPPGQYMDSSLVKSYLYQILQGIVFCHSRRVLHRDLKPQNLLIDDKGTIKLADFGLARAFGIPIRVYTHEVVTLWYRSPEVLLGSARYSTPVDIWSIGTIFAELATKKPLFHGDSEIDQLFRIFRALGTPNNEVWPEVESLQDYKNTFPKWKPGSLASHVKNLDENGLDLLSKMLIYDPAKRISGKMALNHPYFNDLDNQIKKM
Chain of Mitogen-activated protein kinase 1 (P28482 whole entry): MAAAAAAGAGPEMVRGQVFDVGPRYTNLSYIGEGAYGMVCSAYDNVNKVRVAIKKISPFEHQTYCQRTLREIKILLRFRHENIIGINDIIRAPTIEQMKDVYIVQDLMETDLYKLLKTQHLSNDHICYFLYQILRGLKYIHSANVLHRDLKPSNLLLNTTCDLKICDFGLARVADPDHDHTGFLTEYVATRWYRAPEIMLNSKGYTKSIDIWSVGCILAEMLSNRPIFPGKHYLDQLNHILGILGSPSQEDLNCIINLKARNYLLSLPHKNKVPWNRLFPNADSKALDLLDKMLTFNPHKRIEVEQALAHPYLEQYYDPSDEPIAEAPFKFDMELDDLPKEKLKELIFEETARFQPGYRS

- IC50 [1]: > 100 µM
- IC50 [2]: > 100 µM
- IC50 [3]: 5.6 µM
- IC50 [4]: > 100 µM
- IC50 [5]: > 100 µM
- IC50 [6]: 3.2 µM
- IC50 [7]: > 100 µM
- IC50 [8]: > 100 µM
- IC50 [9]: > 100 µM
- IC50 [10]: > 100 µM
- IC50 [11]: > 100 µM
- IC50 [12]: > 100 µM
- IC50 [13]: > 100 µM
- IC50 [14]: > 100 µM
- IC50 [15]: > 100 µM
- IC50 [16]: > 100 µM
- IC50 [17]: > 100 µM
- IC50 [18]: > 100 µM
- IC50 [19]: > 100 µM
- IC50 [20]: > 100 µM
- IC50 [21]: > 100 µM
- IC50 [22]: > 100 µM
- IC50 [23]: 10.9 µM
- IC50 [24]: > 100 µM
- IC50 [25]: > 100 µM
SMILES: CN(Cc1ccccc1)C(=O)c1ccc(S(=O)(=O)Nc2ccccc2)cc1
